# In US5688488A, “Composition and method for tumor imaging” (priority 1995, dated 1997):
# Tests used:
# [1] = system: human KB cells tumors; format: in vivo, athymic mice; details: 29.6 mg tumor; ~45 hours post-injection
# Description: To test the tumor-cell-selective uptake of metal-labeled radiopharmaceuticals in vivo, ~180 μCi of ^67 Ga-deferoxamine-folate conjugate (See FIG. 3) was administered to two tumor-bearing athymic mice. Tumors were generated in athymic mice by subcutaneous injecting human KB cells into the dorsal-lateral region of the mice according to procedures familiar to those of ordinary skill in the art. After establishment of tumors in the mice, ~180 μCi of ^67 Ga-deferoxamine-folate conjugate was administered intravenously. Approximately 45 hours post-injection, gamma images were obtained and the tissue distribution of ^67 Ga quantitated.
# To test the viability of the FBP-receptor as a pathway for achieving tumor-cell-selective uptake of metal-labeled radiopharmaceuticals in vivo, ~180 μCi of ^67 Ga-deferoxamine-folate conjugate was administered intravenously to two tumor-bearing athymic mice via the femoral vein nine days after subcutaneous injection of 4×10^6 human KB cells. At approximately 45 hours post-injection, gamma images were obtained, the animals were sacrificed and dissected, and the tissue distribution of tracer was quantified by gamma counting (after storage of the weighted tissue samples for decay to a suitable ^67 Ga count rate). […] The tumor to blood ratio was 1500 and 1185 and the tumor to muscle ratio was 170 and 288 for each respective mouse.
# [2] = system: KB cells; experiment: Uptake of ^67 Ga-DF-folate complex by cultured KB cells; format: cell-based, human; details: for saturating level of cellular uptake, of the total radioactivity added: concentration dependence
# Description: Cell Culture. KB cells, a human nasopharyngeal epidermal carcinoma cell line that greatly overexpresses the folate binding protein, were cultured continuously as a monolayer at 37° C. in a humidified atmosphere containing 5% CO2 in folate-deficient modified Eagle's medium (FDMEM) (a folate-free modified Eagle's medium supplemented with 10% (v/v) heat-inactivated fetal calf serum as the only source of folate) containing penicillin (50 units/mL), streptomycin (50 μg/mL), and 2 mM L-glutamine. The final folate concentration in the complete FDMEM is the physiological range (~2 nM). 48 h prior to each experiment, the cells were transferred to 35 mm culture dishes at 5×10^5 cells per dish and grown to ~80% confluent.
# Because folate and its conjugates bind to cell surface receptors at 4° C., but are capable of endocytosis only at higher temperatures, it is possible to separately evaluate the kinetics of binding the internalization of folate by measuring the rates of folate conjugate uptake at the two temperatures. […] By the end of the 30 min incubation, binding approached to saturation with ~18% of the initial radioactivity found associated with a cell surface.
# Incubation at 37° C., a temperature which permits both binding and endocytosis, yielded similar kinetic results, however, maximal uptake reached 32% of the total conjugate added. Presumably, the difference in magnitude of the two cellular uptake curves reflects the ability of the folate receptor to internalize the conjugate and then recycle to the cell surface in its unoccupied form. […] This latter result is consistent with the inability of the α-conjugate to compete with free folate for the cell surface receptor.
# To verify the involvement of a cell surface folate receptor in mediating the uptake of ^67 Ga-DF-folate(γ), binding and internalization of the complex were evaluated as a function of the complex's concentration. Cellular uptake of ^67 Ga-DF-folate(γ) was concentration dependent at both 4° C. and 37° C., saturating at levels of 20% and 35% of the total radioactivity added, respectively.
# [3] = system: Subcutaneous KB Cell Tumors
# [4] = physchem; format: physicochemical; details: water
# Description: The crude product contained a mixture of folate-deferoxamine conjugates, wherein the folate is linked to DF via its α-carboxyl or γ-carboxyl group as well as unreacted folic acid. The two isomers of DF-folate were isolated and purified on a weak anion-exchange column. Briefly, the product mixture was loaded onto a 1.5 cm×15 cm […] column pre-equilibrated in 10 mM NH4 CO3 buffer (pH 7.9). The column was washed with 50 mL 10 mM NH4 HCO3 and then eluted with a 500 mL gradient of 80-180 mM NH4 HCO3 followed by 150 mL 500 mM NH4 HCO3. Three folate-containing peaks were obtained as detected by UV absorbance at 363 nm. Each peak was collected, lyophilized, and redissolved in deionized water. The purity of each component was confirmed by reverse-phase high pressure liquid chromatography (HPLC) with a 10 mm×250 mm Licrosorb RP-18 column (Altech, Deerfield, Ill.), and evaluation of the conjugates' molecular weights was determined by fast-atom bombardment mass spectroscopy (FAB-MS). The characteristic pKa values of the two DF-folate isomers were obtained by titration on a pH/ion analyzer (Corning, Corning, N.Y.). […] Since the two isoforms of DF-folate conjugate retain either a free γ-carboxyl or free α-carboxyl, they can be distinguished from each other and from unreacted folic acid by their characteristic pKa values, which were determined by titration.
# [5] = system: membrane transport protein; details: facilitated transport by membrane transport protein; cited from earlier work
# [6] = molecular target: membrane-bound folate-binding-protein receptor (FBP); details: cited from earlier work
# [7] = system: Rat pheochromocytoma (PC-12) cells; experiment: Rat pheochromocytoma cell uptake of biotin conjugated proteins, fluorescent microscope; format: cell-based; details: 37° C., 5, 15 and 33 minutes
# Description: Rat pheochromocytoma (PC-12) cells were obtained from America Type Culture Collection and were grown (37° C., 5% CO2 in humidified air) attached to plastic flasks for 2 to 3 weeks until confluent in a medium of 85% RMPI 1640, 10% v/v heat inactivated horse serum, and 5% fetal calf serum containing 1% streptomycin-penicillin.
# Biotin and fluorescein labeled insulin was prepared.
# The rat PC12 cells were grown in modified RMPI 1640 medium as a monolayer on the bottom of a culture flask. Before removing the cells, the monolayer was washed with a 20 ml portion of fresh Locke's solution. The cells were then displaced into 20 ml of the Locke's solution by gentle agitation with a stream Locke's solution. […] The tubes were allowed to incubate at 37° C. At intervals of 5, 15 and 33 minutes, 0.5 ml of each cell suspension was removed and pelleted at 10,000×g for 10 seconds. The cell pellet was washed and repelleted twice in 1 ml Locke's solution and then fixed by addition of 200 l of a 2% formalin solution in phosphate buffered saline. Thirteen microliters of the fixed cell suspension was then added to a microscope slide and viewed with the fluorescent microscope to detect internalized proteins.
# [8] = system: KB cells (a human nasopharyngeal cell line); experiment: Uptake of ^125 I-labeled folate-labeled protein by KB cells; format: cell-based
# [9] = system: human HeLa cells; experiment: Uptake of ^125 I-labeled folate-labeled RNase by HeLa cells; format: cell-based
# [10] = 17 hours after intraperitoneal injection
# [11] = system: BHK cells; experiment: Ribonuclease-riboflavin uptake by BHK cells; format: cell-based; details: 10 μg/ml, various times (FIG. 4)
# [12] = system: KB cells; experiment: Visualization of ribonuclease endocytosis by KB cells using a confocal microscope; format: cell-based, human; details: 60 minute incubation
# Description: RNase labeled only with fluoroscein was used as a control. Following extensive dialysis against growth medium, the control and folate-labeled RNase samples were added to separate cultures of KB cells. After 60 minute incubation, the cells were thoroughly washed and examined for uptake. […] Furthermore, using the confocal's capability of focusing on a single horizontal plane in each cultured cell, it was readily evident that vesicles filled with the fluorescent-labeled, folate-bound ribonuclease were forming on all regions of the cell surface, pinching off via endocytosis into the interior, and entering the cytoplasm. The vesicles, measuring […] across, were easily large enough to accommodate large biomolecules such as proteins and DNA plasmids.
# [13] = system: white blood cells in whole human blood; details: 37° C., 2 hours
# Description: Fluorescein-labeled RNase was either conjugated to folate or left unmodified (control) following the same general procedure set forth in Example 19. The folate-conjugated and control samples were then added to freshly drawn whole human blood, incubated at 37° C. for 2 hours and then washed thoroughly and examined under the fluorescence microscope.
molecule,measurement,setting,value
CC(=O)N([O-])CCCCCNC(=O)CCC(=O)N([O-])CCCCCNC(=O)CCC(=O)N([O-])CCCCCNC(=O)CCC(NC(=O)c1ccc(NCc2cnc3nc(N)[nH]c(=O)c3n2)cc1)C(=O)O.[67Ga+3] (centres unmarked) [^67 Ga-DF-Folate],detection of tumor by gamma scintigraphy,[1],readily detected by gamma scintigraphy
same,time to half maximal binding,[2]; 4° C.,~ 3 min
same,"saturating level of cellular uptake, of the total radioactivity added",[2]; 4° C.,20%
same,initial radioactivity associated with cell surface,"[2]; 4° C., end of 30 min incubation",~ 18%
same,"maximal uptake, of the total conjugate added",[2]; 37° C.,32%
same,"saturating level of cellular uptake, of the total radioactivity added",[2]; 37° C.,35%
same,initial cellular uptake retained,[2]; 100-fold molar excess of free folate,0.5%
same,decrease in uptake,[2]; equimolar unlabeled folic acid,50%
same,imaging of tumors in vivo with a gamma camera,[3]; 8 mm tumors,8 mm tumors were easily imaged in vivo
same,Tumor-to-Non-target Ratio: Tumor/blood,"[3]; mouse, in vivo, iv, 270 min",48 ± 5
same,Tumor-to-Non-target Ratio: Tumor/kidney,"[3]; mouse, in vivo, iv, 270 min",1.4 ± 0.5
same,Tumor-to-Non-target Ratio: Tumor/liver,"[3]; mouse, in vivo, iv, 270 min",5.1 ± 0.5
same,Tumor-to-Non-target Ratio: Tumor/muscle,"[3]; mouse, in vivo, iv, 270 min",82 ± 16
same,Percentage of Injected Dose per Gram of Tissue: Blood,"[3]; mouse, in vivo, iv, 4.5 h",0.046 ± 0.009 % of injected dose per gram
same,Percentage of Injected Dose per Gram of Tissue: Heart,"[3]; mouse, in vivo, iv, 4.5 h",0.025 ± 0.005 % of injected dose per gram
same,Percentage of Injected Dose per Gram of Tissue: Kidney,"[3]; mouse, in vivo, iv, 4.5 h",1.79 ± 0.82 % of injected dose per gram
same,Percentage of Injected Dose per Gram of Tissue: Liver,"[3]; mouse, in vivo, iv, 4.5 h",0.43 ± 0.03 % of injected dose per gram
same,Percentage of Injected Dose per Gram of Tissue: Lungs,"[3]; mouse, in vivo, iv, 4.5 h",0.052 ± 0.010 % of injected dose per gram
same,Percentage of Injected Dose per Gram of Tissue: Muscle,"[3]; mouse, in vivo, iv, 4.5 h",0.028 ± 0.005 % of injected dose per gram
same,Percentage of Injected Dose per Gram of Tissue: Tumor,"[3]; mouse, in vivo, iv, 4.5 h",2.22 ± 0.36 % of injected dose per gram
"Nc1nc2ncc(CNc3ccc(C(=O)N[C@@H](CCC(=O)O)C(=O)O)cc3)nc2c(=O)[nH]1 [folic acid, Folic acid, reference compound]",pKa,[4]; pKa1,2.5
same,pKa,[4]; pKa2,4.5
same,Km,[5],1.5 µM
same,Ka,[6],500 pM
"fluorescein labeled insulin: non-biotinylated fluorescein labeled insulin, control",cellular internalization (fluorescent microscope),[7],No evidence of internalization
"RNase-Folate: ^125 I bovine ribonuclease with 12-14 covalently bound folates per protein molecule (conjugate, UniProt P61823 27-150, looked up, 125I label; 12-14 folates) Ribonuclease pancreatic: KETAAAKFERQHMDSSTSAASSSNYCNQMMKSRNLTKDRCKPVNTFVHESLADVQAVCSQKNVACKNGQTNCYQSYSTMSITDCRETGSSKYPNCAYKTTQANKHIIVACEGNPYVPVHFDASV",reduction of uptake by competitive inhibition,[8]; 100-fold molar excess of unligated folate,7 fold
same,molecules per cell internalized,"[8]; KB cells, after 30 minutes",10^7 molecules per cell
same,uptake by HeLa cells,[9],corresponding results
same,brain tissue uptake (delivery across the blood/brain barrier),[10],brain tissue's preferential uptake of the folate-labeled protein
"RNase A-Rf (6): ^125 I ribonuclease derivatized with 6 riboflavins per protein (conjugate, UniProt P61823 27-150, looked up, 125I label; 6 riboflavins, ^125 I ribonuclease derivatized with 6 riboflavins per protein) Ribonuclease pancreatic: KETAAAKFERQHMDSSTSAASSSNYCNQMMKSRNLTKDRCKPVNTFVHESLADVQAVCSQKNVACKNGQTNCYQSYSTMSITDCRETGSSKYPNCAYKTTQANKHIIVACEGNPYVPVHFDASV",uptake of ^125 I-ribonuclease by BHK cells,[11],highest rate of uptake
"folate-labeled RNase: Bovine ribonuclease labeled with fluorescein isothiocyanate and further labeled with folate (conjugate, UniProt P61823 27-150, looked up, fluorescein and folate conjugated) Ribonuclease pancreatic: KETAAAKFERQHMDSSTSAASSSNYCNQMMKSRNLTKDRCKPVNTFVHESLADVQAVCSQKNVACKNGQTNCYQSYSTMSITDCRETGSSKYPNCAYKTTQANKHIIVACEGNPYVPVHFDASV",internal fluorescence (confocal microscope),[12],Only the folate-labeled samples displayed any internal fluorescence
same,cell fluorescence (fluorescence microscope),[13],found to fluoresce
